The NIST ThermoML archive (doi:10.1021/je400917j)
Several values for one entry are separate records, joined by “and”; a condition that tells them apart may be missing. Identical values can stand only once. ± gives the expanded uncertainty stated by the source.

Legend:
[1] = 101 kPa, Liquid; for mass density: Vibrating tube method
[2] = xn = mol fraction of the nth substance listed; settings: 101 kPa, Liquid; for mass density: Vibrating tube method

SMILES | viscosity ([1]; 298.15 K) [mPa·s] | mass density ([1]; 298.15 K) [kg/m3] | viscosity ([1]; 303.15 K) [mPa·s] | mass density ([1]; 303.15 K) [kg/m3] | viscosity ([1]; 308.15 K) | mass density ([1]; 308.15 K) [kg/m3] | viscosity ([1]; 313.15 K) [mPa·s] | mass density ([1]; 313.15 K) [kg/m3] | also measured
CCCCCC(C)O (stereo not drawn) [2-heptanol] | 5.3 ± 0.15 | 813.2 ± 0.2 | 4.48 ± 0.13 | 809.5 ± 0.2 | 3.68 ± 0.11 mPa·s | 805.7 ± 0.2 | 2.96 ± 0.086 | 801.5 ± 0.2 | 
CCCCC(C)O (stereo not drawn) [2-hexanol] | 4.1 ± 0.15 | 810.1 ± 0.2 | 3.41 ± 0.12 | 806.1 ± 0.2 | 2.82 ± 0.1 mPa·s | 802.1 ± 0.2 | 2.22 ± 0.083 | 798 ± 0.2 | 
CC(=O)N(C)C [N,N-dimethylethanamide] | 0.94 ± 0.03 | 936.5 ± 0.2 | 0.87 ± 0.03 | 932 ± 0.2 | 0.82 ± 0.03 mPa·s and 0.8 ± 0.03 mPa·s | 927.8 ± 0.2 | 0.75 ± 0.02 | 923.5 ± 0.2 | 
CC(=O)N(C)C [N,N-dimethylethanamide] + CCCC(C)O |  |  |  |  |  |  |  |  | mass density ([2]; 298.15 K, x1 = 1): 936.5 ± 0.2 kg/m3; viscosity ([2]; 298.15 K, x1 = 1): 0.94 ± 0.029 mPa·s; mass density ([2]; 303.15 K, x1 = 1): 932 ± 0.2 kg/m3; viscosity ([2]; 303.15 K, x1 = 1): 0.87 ± 0.027 mPa·s; mass density ([2]; 308.15 K, x1 = 1): 927.8 ± 0.2 kg/m3; viscosity ([2]; 308.15 K, x1 = 1): 0.8 ± 0.025 mPa·s; mass density ([2]; 313.15 K, x1 = 1): 923.5 ± 0.2 kg/m3; viscosity ([2]; 313.15 K, x1 = 1): 0.75 ± 0.023 mPa·s
CC(=O)N(C)C [N,N-dimethylethanamide] + CCCCC(C)O |  |  |  |  |  |  |  |  | mass density ([2]; 298.15 K, x1 = 1): 936.5 ± 0.2 kg/m3; viscosity ([2]; 298.15 K, x1 = 1): 0.94 ± 0.037 mPa·s; mass density ([2]; 303.15 K, x1 = 1): 932 ± 0.2 kg/m3; viscosity ([2]; 303.15 K, x1 = 1): 0.87 ± 0.035 mPa·s; mass density ([2]; 308.15 K, x1 = 1): 927.8 ± 0.2 kg/m3; viscosity ([2]; 308.15 K, x1 = 1): 0.8 ± 0.032 mPa·s; mass density ([2]; 313.15 K, x1 = 1): 923.5 ± 0.2 kg/m3; viscosity ([2]; 313.15 K, x1 = 1): 0.75 ± 0.031 mPa·s
CC(=O)N(C)C [N,N-dimethylethanamide] + CCCCCC(C)O |  |  |  |  |  |  |  |  | mass density ([2]; 298.15 K, x1 = 1): 936.5 ± 0.2 kg/m3; viscosity ([2]; 298.15 K, x1 = 1): 0.94 ± 0.029 mPa·s; mass density ([2]; 303.15 K, x1 = 1): 932 ± 0.2 kg/m3; viscosity ([2]; 303.15 K, x1 = 1): 0.87 ± 0.027 mPa·s; mass density ([2]; 308.15 K, x1 = 1): 927.8 ± 0.2 kg/m3; viscosity ([2]; 308.15 K, x1 = 1): 0.8 ± 0.025 mPa·s; mass density ([2]; 313.15 K, x1 = 1): 923.5 ± 0.2 kg/m3; viscosity ([2]; 313.15 K, x1 = 1): 0.75 ± 0.023 mPa·s
CCC(C)O (stereo not drawn) [butan-2-ol] | 3.1 ± 0.09 | 803 ± 0.2 | 2.53 ± 0.07 | 798.9 ± 0.2 | 2.13 ± 0.06 mPa·s | 795 ± 0.2 | 1.8 ± 0.05 | 790.2 ± 0.2 | 
CCC(C)O (stereo not drawn) [butan-2-ol] + CC(=O)N(C)C |  |  |  |  |  |  |  |  | mass density ([2]; 298.15 K, x2 = 0): 803 ± 0.2 kg/m3; viscosity ([2]; 298.15 K, x2 = 0): 3.1 ± 0.09 mPa·s; mass density ([2]; 303.15 K, x2 = 0): 798.9 ± 0.2 kg/m3; viscosity ([2]; 303.15 K, x2 = 0): 2.53 ± 0.07 mPa·s; mass density ([2]; 308.15 K, x2 = 0): 795 ± 0.2 kg/m3; viscosity ([2]; 308.15 K, x2 = 0): 2.13 ± 0.06 mPa·s; mass density ([2]; 313.15 K, x2 = 0): 790.2 ± 0.2 kg/m3; viscosity ([2]; 313.15 K, x2 = 0): 1.8 ± 0.05 mPa·s
CCCC(C)O (stereo not drawn) [pentan-2-ol] | 3.5 ± 0.1 | 805.4 ± 0.2 | 2.83 ± 0.082 | 800.9 ± 0.2 | 2.35 ± 0.069 mPa·s | 796.9 ± 0.2 | 1.98 ± 0.058 | 792.6 ± 0.2 | 
CC(C)O [propan-2-ol] | 2.05 ± 0.06 | 781.1 ± 0.2 | 1.79 ± 0.05 | 776.8 ± 0.2 | 1.56 ± 0.05 mPa·s | 772.4 ± 0.2 | 1.35 ± 0.04 | 767.8 ± 0.2 | 
CC(C)O [propan-2-ol] + CC(=O)N(C)C |  |  |  |  |  |  |  |  | mass density ([2]; 298.15 K, x2 = 0): 781.1 ± 0.2 kg/m3; viscosity ([2]; 298.15 K, x2 = 0): 2.05 ± 0.06 mPa·s; mass density ([2]; 303.15 K, x2 = 0): 776.8 ± 0.2 kg/m3; viscosity ([2]; 303.15 K, x2 = 0): 1.79 ± 0.05 mPa·s; mass density ([2]; 308.15 K, x2 = 0): 772.4 ± 0.2 kg/m3; viscosity ([2]; 308.15 K, x2 = 0): 1.56 ± 0.05 mPa·s; mass density ([2]; 313.15 K, x2 = 0): 767.8 ± 0.2 kg/m3; viscosity ([2]; 313.15 K, x2 = 0): 1.35 ± 0.04 mPa·s
